# Laboratory results: patent US20100285959A1, “HERBICIDAL MIXTURES” (priority 2006, published 2010)
# Legend:
# [1] = system: winter wheat (TRZAW); experiment: Test 19 growth chamber, postemergence; assay type: in vivo, Triticum aestivum
# Method: (§1) A test was conducted to evaluate the effects on winter barley (HORVW, Hordeum vulgare L.) and winter wheat (TRZAW, Triticum aestivum L.) of mixtures of Compound 2 with the commercial herbicide (2,4-dichlorophenoxy)acetic acid (2,4-D), an auxin mimic. […] Plants were treated postemergence at the 3-leaf growth stage, and each treatment was replicated four times. […] Plants were watered as needed. […] Results are the means of the four replicates.
# [2] = system: field poppy (PAPRH); experiment: Test 23 growth chamber, postemergence; assay type: in vivo, Papaver rhoeas; conditions: 21 DAA
# Method: (§2) A test was conducted to evaluate the effects on winter barley (HORVW, Hordeum vulgare L.), winter wheat (TRZAW, Triticum aestivum L.), and several weed species of mixtures of Compound 2 with the commercial herbicides (2,4-dichlorophenoxy)acetic acid (2,4-D) and (4-chloro-2-methylphenoxy)acetic acid (MCPA), auxin mimics. […] Plants were treated postemergence at the 2-4 leaf growth stage, and each treatment was replicated three times. […] Plants were watered as needed. […] Results are means of the three replicates.
# [3] = system: wild buckwheat (POLCO); experiment: Test 23 growth chamber, postemergence; assay type: in vivo, Polygonum convolvulus; conditions: 21 DAA
# Method: as §2
# [4] = system: common chickweed (STEME); experiment: Test 22 growth chamber, postemergence; assay type: in vivo, Stellaria media; conditions: 25 DAA
# Method: as §2, with “stage, except KCHSC, SASKR” for “stage,”, “STEME which were in the 4-8 leaf growth stage. Each” for “each”, “one time.” for “three times.”, “from single” for “means of the three”
# [5] = system: winter wheat (TRZAW); experiment: Test 21 growth chamber, postemergence; assay type: in vivo, Triticum aestivum; conditions: 19 DAA
# Method: as §1, with “L.),” for “L.) and”, “L.), and several weed species,” for “L.)”, “2-4 leaf” for “3-leaf”, “one time.” for “four times.”, “from single” for “the means of the four”
# [6] = system: flint corn (ZEAMI); experiment: Test 12 field trial, preemergence; assay type: in vivo, Zea mays L. ssp. indurata; conditions: Cpd 2 or Cpd 1 62 g a.i./ha, Diuron 2000 g a.i./ha
# Description: In early-mid spring season, corn seeds (hybrid ‘Pioneer 3041’) were planted 5 cm deep and sugarcane nodes (variety RB-72.454) were planted 10 cm deep in separate plots in a clay soil having 2.6% organic matter and a pH of 5.6. Plots were 24 m long by 1.5 m wide with rows spaced 80 cm (corn) or 140 cm (sugarcane) apart. Corn seeds were spaced 15 cm apart and sugarcane nodes were spaced 10 cm apart within the rows. At the same time, weed seeds were broadcast over the surface of separate plots without a crop, one weed species per plot. The weed plots were rotary tilled to incorporate the weed seeds to a variety of depths. The field was managed using conventional tillage practices.
# [7] = system: Virginia pepperweed (LEPVI); experiment: Test 3 field trial, emerged weeds before corn planting; assay type: in vivo, Lepidium virginicum; conditions: Cpd 2 100, glyphosate 1540, paraquat 1150 g a.i./ha, alone or combined
# Description: Corn seeds (hybrid ‘Pioneer 33J56’) were planted in early spring season, 3.8 cm deep in a silt loam soil having 2.4% organic matter and a pH of 6. Plots were 6.1 m long by 2.7 m wide with rows spaced 91.4 cm apart. The field was managed using no-till practices. […] Compound 2 and paraquat treatments, alone and in combination, also included a surfactant. Glyphosate, alone and with Compound 2, included ammonium sulfate in the treatment mixture. […] The effects on the weeds in the treated plots and untreated control plots were recorded 30, 42, 46 and 68 days after application. Most of the weed species could not be evaluated at every timing. Corn response was not evaluated because the growth was highly variable depending on the efficacy of the weed control treatments. […] Results are the means of the three replicates.
# [8] = system: Pennsylvania smartweed (POLPY); experiment: Test 7 field trial, preemergence; assay type: in vivo, Polygonum pensylvanicum
# Method: Plots were 7.6 m long by 3.0 m wide with rows spaced 76 cm apart. Seeds were spaced 15 cm apart within the rows. The field was managed using conventional tillage practices. […] Wild radish was evaluated 14 and 28 days after application. […] Results are the means of the three replicates.
# [9] = system: common dandelion (TAROF); experiment: Test 9 field trial, emerged weeds before corn planting; assay type: in vivo, Taraxacum officinale; conditions: g a.i./ha: Cpd 2 100, Glyphosate 1540, Paraquat 1150
# Method: Corn seeds (hybrid ‘Pioneer 34M91 RR’) were planted in mid spring season, about 3.8 cm deep in a silty clay loam soil having a pH of 6.7. Plots were 9.1 m long by 3.0 m. The field was managed using no-till practices. […] Compound 2 and paraquat treatments, alone and in combination, also included a surfactant. Glyphosate, alone and with Compound 2, included ammonium sulfate in the treatment mixture. […] The effects on the weeds in the treated plots and untreated control plots were recorded 7, 14, 23, 30 and 57 days after application. Most of the weed species could not be evaluated at every timing. Corn response was only evaluated 57 days after application. […] Results are the means of the three replicates.
# [10] = 2,4-D or MCPA alone 250 g a.i./ha
smiles,measurement,setting,value
"O=C(O)COc1ccc(Cl)cc1Cl [2,4-D, (2,4-dichlorophenoxy)acetic acid]",TRZAW Obs,"[1]; Postemergence, 17 DAA, g a.i./ha: Cpd 2 16, 2,4-D 250",23
same,TRZAW Obs,"[1]; Postemergence, 17 DAA, g a.i./ha: Cpd 2 16, 2,4-D 500",23
same,TRZAW Obs,"[1]; Postemergence, 17 DAA, g a.i./ha: Cpd 2 16, 2,4-D 1000",25
same,Postemergence PAPRH Obs,[2]; [10],52
same,Postemergence POLCO Obs,[3]; [10],58
same,Postemergence STEME Obs,[4]; [10],55
same,Postemergence TRZAW Obs,"[5]; 2,4-D alone 125 g a.i./ha",35
same,Postemergence TRZAW Obs,"[5]; 2,4-D alone 250 g a.i./ha",40
"Nc1nc(C2CC2)nc(C(=O)O)c1Cl [Compound 1, 6-amino-5-chloro-2-cyclopropyl-4-pyrimidinecarboxylic acid]",ZEAMI Obs,[6]; 15 DAA,0%
same,ZEAMI Obs,[6]; 29 DAA,10%
same,ZEAMI Obs,[6]; 48 DAA,20%
same,ZEAMI Obs,[6]; 61 DAA,15%
"COC(=O)c1nc(C2CC2)nc(N)c1Cl [Compound 2, methyl 6-amino-5-chloro-2-cyclopropyl-4-pyrimidinecarboxylate]",TRZAW Obs,[1]; in vivo,43
same,Postemergence PAPRH Obs,[2]; Cpd 2 alone 4 g a.i./ha,53
same,Postemergence PAPRH Obs,[2]; Cpd 2 alone 8 g a.i./ha,58
same,Postemergence PAPRH Obs,[2]; Cpd 2 alone 16 g a.i./ha,72
same,LEPVI Obs,[7]; 30 DAA,69%
same,LEPVI Obs,[7]; 42 DAA,18%
same,LEPVI Obs,[7]; 46 DAA,23%
same,Postemergence POLCO Obs,[3]; Cpd 2 alone 4 g a.i./ha,48
same,Postemergence POLCO Obs,[3]; Cpd 2 alone 8 g a.i./ha,53
same,Postemergence POLCO Obs,[3]; Cpd 2 alone 16 g a.i./ha,55
same,Postemergence STEME Obs,[4]; Cpd 2 alone 4 g a.i./ha,50
same,Postemergence STEME Obs,[4]; Cpd 2 alone 8 g a.i./ha,50
same,Postemergence STEME Obs,[4]; Cpd 2 alone 16 g a.i./ha,55
same,ZEAMI Obs,[6]; 15 DAA,15%
same,ZEAMI Obs,[6]; 29 DAA,10%
same,ZEAMI Obs,[6]; 48 DAA,0%
same,ZEAMI Obs,[6]; 61 DAA,15%
same,POLPY Obs,"[8]; 14 DAA, 125 g a.i./ha",77%
same,POLPY Obs,"[8]; 14 DAA, 250 g a.i./ha",95%
same,POLPY Obs,"[8]; 14 DAA, 500 g a.i./ha",97%
same,POLPY Obs,"[8]; 28 DAA, 125 g a.i./ha",70%
same,POLPY Obs,"[8]; 28 DAA, 250 g a.i./ha",93%
same,POLPY Obs,"[8]; 28 DAA, 500 g a.i./ha",97%
same,POLPY Obs,"[8]; 62 DAA, 125 g a.i./ha",40%
same,POLPY Obs,"[8]; 62 DAA, 500 g a.i./ha",100%
same,Postemergence TRZAW Obs,[5]; Cpd 2 alone 16 g a.i./ha,50
same,TAROF Obs,[9]; 7 DAA,37%
same,TAROF Obs,[9]; 14 DAA,38%
same,TAROF Obs,[9]; 23 DAA,60%
same,TAROF Obs,[9]; 30 DAA,65%
same,TAROF Obs,[9]; 57 DAA,84%
O=C(O)CNCP(=O)(O)O [Glyphosate],LEPVI Obs,[7]; 30 DAA,98%
same,LEPVI Obs,[7]; 42 DAA,82%
same,LEPVI Obs,[7]; 46 DAA,98%
same,TAROF Obs,[9]; 7 DAA,37%
same,TAROF Obs,[9]; 14 DAA,62%
same,TAROF Obs,[9]; 23 DAA,83%
same,TAROF Obs,[9]; 30 DAA,90%
same,TAROF Obs,[9]; 57 DAA,88%
"CCc1cccc(C)c1N(C(=O)CCl)[C@@H](C)COC [S-Metolachlor, S-metolachlor, reference compound]",POLPY Obs,"[8]; 14 DAA, 1000 g a.i./ha",60%
same,POLPY Obs,"[8]; 28 DAA, 1000 g a.i./ha",45%
same,POLPY Obs,"[8]; 62 DAA, 1000 g a.i./ha",10%
